Measurements published in patent EP0082498A2, “Beta-lactam compounds and process for the preparation thereof” (SAGAMI CHEMICAL RESEARCH CENTER, priority 1981, dated 1983).
Converted amounts (≈) assume the structure as drawn. Counter-ions that a name gives are not always drawn. Like-named read-outs stand apart in the source and are kept apart here.

What was measured:
Experiment in all cases: Antibacterial activity, minimum inhibition concentration (MIC)
Format in all cases: cell-based
[1] = system: Proteus morganii IFO 3848; details: for MIC: Morganella morganii
Protocol: (§1) Antibacterial activities of the compounds according to this invention, which had been prepared in the preceding Examples, were measured according to the method prescribed by The Committee of Amendment of "The method for measurement of the minimum inhibition concentration", The Chemotherapy Association, Japan (See Chemotherapy, Vol. 29, No. 1, pp. 76 ~ 79 (1981)).
(§2) The test results are shown in terms of the minimum inhibition concentration (MIC) (unit: µg/mℓ) in the following Tables 1 to 4.

[2] = system: Salmonella typhimrium 901
Protocol: as §1, §2

[3] = system: Staphylococcus aureus MS 353; details: for MIC: Staphylococcus aureus
Protocol: as §1, §2

[4] = system: Escherichia coli NIHJ-JC-2
Protocol: as §1, §2

[5] = system: Klebsiella pneumoniae PCI-602; details: PCI602, Table 3
Protocol: as §1, §2

[6] = system: Proteus mirabillis IFO 3849; details: Table 3
Protocol: as §1, §2

[7] = system: Salmonella typhimurium IID-971; details: Salmonella enterica, Salmonella typhimurium IID-971, read-out: minimum inhibition concentration (MIC)
Protocol: as §1, §2

[8] = system: Staphylococcus aureus FDA 209 PJC-1
Protocol: as §1, §2

[9] = system: Pseudomonas aeruginosa NCTC 10490; details: NCTC10490, Table 2
Protocol: as §1, §2

[10] = IFO3848, Table 4, Proteus morganii IFO 3848, read-out: minimum inhibition concentration (MIC)
[11] = Table 4, Salmonella typhimrium 901, read-out: minimum inhibition concentration (MIC)
[12] = MS353, Table 4, Staphylococcus aureus MS 353, read-out: minimum inhibition concentration (MIC)
[13] = IFO3848, Table 2, Proteus morganii IFO-3848, read-out: minimum inhibition concentration (MIC)
[14] = IFO3848, Table 1, Proteus morganii IFO 3848, read-out: minimum inhibition concentration (MIC)
[15] = MS353, Table 1, Staphylococcus aureus MS 353, read-out: minimum inhibition concentration (MIC)

Compound: sodium 7-[2-chloromethylene-2-(2-aminothiazol-4-yl)-acetamido]-3-(2-hydroxycarbonylmethylthio-1,3,4-thiadia- zol-5-yl)thiomethyl-3-cephem-4-carboxylate [Example 35]
- minimum inhibition concentration (MIC) ([1]; Table 4, Proteus morganii IFO 3848): ≤0.00625 µg/mL
- minimum inhibition concentration (MIC) ([2]; Table 4, Salmonella typhimrium 901): 0.78 µg/mL
- minimum inhibition concentration (MIC) ([3]; Table 4, Staphylococcus aureus MS 353): 0.78 µg/mL

Compound: CC1(C)S[C@@H]2C(NC(=O)C(=CCl)c3csc(N)n3)C(=O)N2[C@H]1C(=O)[O-].[Na+] (single isomer, unassigned) [Example 38, Sodium 6-[2-chloromethylene-2-(2-aminothiazol-4-yl)acetamido]penicillanate]
- MIC ([1]; IFO3848, read-out: minimum inhibition concentration (MIC)): 0.05 µg/mL
- MIC ([2]; Salmonella, 901, read-out: minimum inhibition concentration (MIC)): 3.12 µg/mL
- MIC ([3]; MS353, read-out: minimum inhibition concentration (MIC)): 0.2 µg/mL

Compound: Nc1nc(C(=CCl)C(=O)NC2C(=O)N3C(C(=O)O)=C(CSc4cnn[nH]4)CSC23)cs1 (single isomer, unassigned) [Example 34, sodium7-[2-chloramethylene-2-(2-aminothiazol-4-yl)acetamido]-3-(l,2,3-triazol-5-yl)thiomethyl-3-cephem-4-carboxylate]
- MIC [1, 10]: 0.0125 µg/mL
- MIC [2, 11]: 0.78 µg/mL
- MIC [3, 12]: 0.78 µg/mL

Compound: Nc1nc(C(=CI)C(=O)NC2C(=O)N3C(C(=O)O)=C(CSc4nncs4)CS[C@H]23)cs1 (single isomer, unassigned) [Example 37, 7-[2-Iodomethylene-2-(2-aminothiazol-4-yl)acetamido]-3-(1,3,4-thiadiazol-2-yl)thiomethyl-3-cephem-4-carboxylic acid]
- MIC [1, 10]: ≤ 0.00313 µg/mL
- MIC [2, 11]: 0.39 µg/mL (≈ 0.641 µM)
- MIC [3, 12]: 0.2 µg/mL (≈ 0.329 µM)

Compound: Cn1ncc(=O)nc1SCC1=C(C(=O)O)N2C(=O)C(NC(=O)C(=CCl)c3csc(N)n3)C2SC1 (single isomer, unassigned) [Example 36, sodium 7-[2-chloromethylene-2-(2-aminothiazol-4-yl)acetamido]-3-(2-dihydro-2-methyl-5-oxo-as-triazine-3-yl)thiomethyl-3-cephem-4-carboxylate]
- MIC [1, 10]: ≤ 0.00625 µg/mL
- MIC [2, 11]: 0.39 µg/mL
- MIC [3, 12]: 0.39 µg/mL

Compound: N#CCn1nnnc1SCC1=C(C(=O)O)N2C(=O)C(NC(=O)C(=CCl)c3csc(N)n3)C2SC1 (single isomer, unassigned) [Example 32, sodiun 7-[2-chloromethylene-2-(2-aminothiazol-4-yl)acetamido]-3-(l-cyanomethyl-l,2,3,4-tetrazol-5-yl)thiomethyl-3-cephem-4-carboxylate]
- MIC [1, 10]: 0.0125 µg/mL (≈ 0.0231 µM)
- MIC [2, 11]: 0.78 µg/mL (≈ 1.44 µM)
- MIC [3, 12]: 1.56 µg/mL (≈ 2.89 µM)

Compound: Cn1nnnc1SCC1=C(C(=O)O)N2C(=O)C(NC(=O)C(=CCl)c3csc(N)n3)C2SC1 (single isomer, unassigned) [Example 27, sodium 7-[2-chloromethylene-2-(2-aminothiazol-4-yl)acetamido]-3-(1-methyl-1H-tetrazol-5-yl)thiomethyl-3-cephem-4-carboxylate]
- MIC ([4]; NIHJJC2, Table 3): 0.2 µg/mL
- MIC [5]: < 0.00625 µg/mL
- MIC [6]: 0.2 µg/mL
- MIC ([7]; Table 3): 0.78 µg/mL
- MIC ([8]; FDA209, Table 3): 0.78 µg/mL

Compound: NC(=O)Cn1nnnc1SCC1=C(C(=O)O)N2C(=O)C(NC(=O)C(=CCl)c3csc(N)n3)C2SC1 (single isomer, unassigned) [Example 29, sodium 7-[2-chloromethylene-2-(2-aminothiazol-4-yl)acetamido]-3-(1-carbamoylmethyl-1,2,3,4-tetrazol-5-yl)thiomethyl-3-cephem-4-carboxylate]
- MIC [2, 11]: 0.1 µg/mL
- MIC [3, 12]: 0.78 µg/mL

Compound: Cc1nnc(SCC2=C(C(=O)O)N3C(=O)C(NC(=O)C(=CBr)c4csc(N)n4)C3SC2)s1 (centres unmarked) [Example 26, 7-[2-Bromomethylene-2-(2-aminothiazol-4-yl)acetamido]-3-(2-methyl-1,3,4-thiadiazol-5-yl)thiomethy1-3-cephem-4-carboxylic acid]
- MIC ([4]; NIHJJC2, Table 2): 0.1 µg/mL (≈ 0.174 µM)
- MIC [1, 13]: ≤ 0.0063 µg/mL
- MIC [9]: 0.39 µg/mL (≈ 0.678 µM)
- MIC ([8]; FDA209, Table 2): 0.39 µg/mL (≈ 0.678 µM)

Compound: Nc1nc(C(=CBr)C(=O)NC2C(=O)N3C(C(=O)O)=C(CSc4nncs4)CS[C@H]23)cs1 (some centres unmarked) [Example 25, 7-[2-Bromomethylene-2-(2-aminothiazol-4-yl)acetamido]-3-(1,3,4-thiadiazol-2-yl)thiomethyl-3-cephem-4-carboxylic acid]
- MIC ([4]; NIHJJC2, Table 2): 0.1 µg/mL (≈ 0.178 µM)
- MIC [1, 13]: ≤ 0.0063 µg/mL
- MIC [9]: 0.2 µg/mL (≈ 0.356 µM)
- MIC ([8]; FDA209, Table 2): 0.2 µg/mL (≈ 0.356 µM)

Compound: CC(=O)OCC1=C(C(=O)O)N2C(=O)C(NC(=O)C(=CCl)c3csc(N)n3)C2SC1 (single isomer, unassigned) [Example 28, sodium 7-[2-chloromethylene-2-(2-aminothiazol-4-yl)-acetamido]-3-acetoxymethyl-3-cephem-4-carboxylate]
- MIC ([4]; NIHJJC2, Table 3): 0.1 µg/mL
- MIC [5]: 0.05 µg/mL
- MIC [6]: 0.2 µg/mL
- MIC ([7]; Table 3): 12.5 µg/mL
- MIC ([8]; FDA209, Table 3): 12.5 µg/mL

Compound: Nc1nc(C(=CCl)C(=O)NC2C(=O)N3C(C(=O)O)=C(CSc4cnns4)CSC23)cs1 (single isomer, unassigned) [Example 33, sodium 7-[2-chloromethylene-2-(2-aminothiazol-4-yl)acetamido]-3-(1,2,3-thiadiazol-5-yl)thiomethyl-3-cephem-4-carboxylate]
- MIC [1, 10]: ≤ 0.00625 µg/mL
- MIC [2, 11]: 0.2 µg/mL
- MIC [3, 12]: 0.1 µg/mL

Compound: Cl.Cn1nnnc1SCC1=C(C(=O)O)N2C(=O)C(NC(=O)C(=CC#N)c3csc(N)n3)[C@H]2SC1 (single isomer, unassigned) [Example 14, 7-[2-Cyanomethylene-2-(2-aminothiazol-4-yl)acetamido]-3-(1-methyl-1H-tetrazol-5-yl)thiomethyl-3-cephem-4-carboxylic acid hydrochloride salt]
- MIC [1, 14]: 0.39 µg/mL
- MIC ([7]; Table 1): 0.39 µg/mL
- MIC [3, 15]: 100 µg/mL

Compound: CCSc1nnc(SCC2=C(C(=O)O)N3C(=O)C(NC(=O)C(=CCl)c4csc(N)n4)C3SC2)s1 (single isomer, unassigned) [Example 22, 7-[2-Chloromethylene-2-(2-aminothiazol-4-yl)acetamido]-3-(2-ethylthio-l,3,4-thiadiazol-5-yl)thiomethyl-3-cephem-4-carboxylic acid hydrochloride]
- MIC ([4]; NIHJJC2, Table 2): 0.2 µg/mL
- MIC [1, 13]: ≤ 0.0063 µg/mL
- MIC [9]: 1.56 µg/mL
- MIC ([8]; FDA209, Table 2): 0.2 µg/mL

Compound: CSc1nnc(SCC2=C(C(=O)O)N3C(=O)C(NC(=O)C(=CCl)c4csc(N)n4)C3SC2)s1 (single isomer, unassigned) [Example 20, 7-[2-chloromethylene-2-(2-aminothiazol-4-yl)acetamido]-3-(2-methylthio-l,3,4-thiadiazol-5-yl)thiomethyl-3-cephem-4-carboxylic acid]
- MIC [1, 14]: ≤ 0.006 µg/mL
- MIC ([7]; Table 1): ≤ 0.006 µg/mL
- MIC [3, 15]: 0.1 µg/mL (≈ 0.178 µM)

Compound: COC(=O)Cn1nnnc1SCC1=C(C(=O)O)N2C(=O)C(NC(=O)C(=CCl)c3csc(N)n3)C2SC1 (single isomer, unassigned) [Example 30, disodium 7-[2-chloromethylene-2-(2-aminothiazol-4-yl)acetamido]-3-(l-methoxycarbonylmethyl-1,2,3,4-tetrazol-5-yl)thiomethyl-3-cephem-4-carboxylate]
- MIC [2, 11]: 0.2 µg/mL
- MIC [3, 12]: 0.78 µg/mL

Compound: Cn1nnnc1SCC1=C(C(=O)O)N2C(=O)C(NC(=O)C(=CC#N)c3csc(N)n3)C2SC1 (single isomer, unassigned) [Example 16, 7-[2-Cyanomethylene-2-(2-aminothiazol-4-yl)acetamido]-3-(l-methyl-lH-tetrazol-5-yl)thiomethyl-3-cephem-4-carboxylic acid]
- MIC [1, 14]: ≤ 0.006 µg/mL
- MIC ([7]; Table 1): ≤ 0.006 µg/mL
- MIC [3, 15]: 0.78 µg/mL (≈ 1.54 µM)

Compound: Nc1nc(C(=CCl)C(=O)NC2C(=O)N3C(C(=O)O)=C(CSc4nnnn4CCO)CSC23)cs1 (single isomer, unassigned) [Example 31]
- MIC [1, 10]: ≤ 0.00625 µg/mL
- MIC [2, 11]: 0.39 µg/mL (≈ 0.716 µM)
- MIC [3, 12]: 0.78 µg/mL (≈ 1.43 µM)
